A short description of the data set: Human HepG2 cell viability assay in 384 well format. In kind it is toxicity, cell-based. On the set-up: dose 125 nL, time 70.5 hour; concentration not given beside the values. To be noted: HepG2 cells, read-out: Inhibition.
Consider `Fc1ccc2[nH]c([C@H]3CCN(C4CCOCC4)C3)nc2c1`, for which the cytotoxicity at 70.5 h is 4.63%. With `CCS(=O)(=O)c1ccc2oc([C@H]3CCN(CC4CCCCC4)C3)nc2c1` the figure was 13.1%; with `Fc1ccc(OCc2nnc([C@H]3CCN(Cc4ccncc4)C3)o2)cc1`, -6.85%; with `CN1CC[C@H](c2nnc(Cc3c[nH]c4ccccc34)o2)C1`, -1.52%.

Take `COC(=O)[C@@H]1Cc2[nH]cnc2CN1Cc1cc2ccccc2o1`: the cytotoxicity at 70.5 h was -2.5%. In the case of `CN(Cc1ccccc1)C(=O)[C@@H]1Cc2[nH]cnc2CN1C` it was 9.41%. Turning to `CN(C[C@H]1CN2CC[C@H]1C[C@@H]2CNC(=O)c1ccco1)c1ccccc1`, the cytotoxicity at 70.5 h was -0.576%. Consider `O[C@@H]1C[C@@H](c2nc(-c3ccccc3)no2)N(CC2CCCCC2)C1`, for which the cytotoxicity at 70.5 h was -12.5%. In the case of `CC(C)CN1C(=O)COC[C@@H]1[C@H](O)c1ccc(NC(=O)C2CC2)cc1` it was 5.4%; in that of `Cc1cccc(-c2noc([C@@H]3C[C@@H](O)CN3C)n2)c1`, 3.3%; in that of `O[C@@H]1C[C@@H](c2nc(Cc3ccccc3)no2)N(Cc2ccc(F)cc2)C1`, -19.1%. In the case of `Cc1cccc(-c2noc([C@@H]3C[C@@H](O)CN3CC3CCCCC3)n2)c1` it was -1.98%. With `Cc1ccc2oc([C@H]3CCN(Cc4ccccc4)C3)nc2c1` the figure was 5.17%; with `COc1ccc(CN2CCC[C@H]2c2nc(-c3cncnc3N)no2)cc1`, 12.8%. With `COCc1cc(CC2(NCc3ccccc3Cl)COC2)no1`, the cytotoxicity at 70.5 h is -3.62%. `CC(C)CNC1(Cc2cc(-c3ccccc3)on2)COC1`: the cytotoxicity at 70.5 h was -6.11%. With `O=C(NC[C@H]1OC[C@@H](N(CC2CC2)CC2CC2)[C@@H]1O)Nc1ccccc1` the figure was -8.13%; with `Cc1nc(C)c(CN2CCOC[C@H](Oc3cnccn3)C2)s1`, -7.51%. In the case of `CN1C[C@H]2CN(Cc3cccc(OC(F)(F)F)c3)CCN2C1=O` it was 8.83%. Regarding `Cc1ccc(CNC2(Cc3cc(C(C)(C)O)on3)COC2)o1`, the cytotoxicity at 70.5 h is -5.2%. With `COC(=O)[C@H]1CN(C(=O)NC(C)C)CCN1C(=O)CSC` the figure was -5.64%; with `c1ccc(-c2cc(CC3(NCc4ncc[nH]4)COC3)no2)cc1`, -4.27%. `CCCN(CCC)C1(Cc2cc(-c3cccc(O)c3)on2)COC1`: the cytotoxicity at 70.5 h is -2.95%. In the case of `CCCS(=O)(=O)N1Cc2c(ncn2Cc2ccccc2)C[C@H]1C(=O)OC` it was -5.74%; in that of `O[C@@H]1C[C@@H](c2nc(Cc3ccccc3)no2)N(CC2CC2)C1`, 2.65%.

With `CN1C[C@@H](N)C[C@H]1c1nc(-c2ccc3c(c2)OCO3)no1`, the cytotoxicity at 70.5 h is -1.52%. Regarding `O[C@H]1CC[C@@H](Cc2cc(-c3ccccn3)on2)O[C@@H]1CNCC1CC1`, the cytotoxicity at 70.5 h was -7.3%. With `O=C(Nc1ccccc1)[C@H]1O[C@H](CCN2CCNCC2)CC[C@@H]1O` the figure was 0.346%; with `CN1Cc2nc[nH]c2C[C@H]1C(=O)NC1CCCCC1`, -3.45%; with `NC(=O)CN1C(=O)CO[C@H]2CN(Cc3ccc(F)c(F)c3)C[C@H]21`, -3.9%.

Regarding `Cc1cccc(CS(=O)(=O)NCc2nn(C)c3c2COCC3)c1`, the cytotoxicity at 70.5 h was -7.96%. With `Cn1nc(CNC(=O)C2CCC2)cc1C1CC1` the figure was -4.15%. For `Cn1nc(CNC(=O)C2CCCCC2)cc1C1CC1`, the cytotoxicity at 70.5 h came to 33%. Consider `CCSc1ccccc1C(=O)N1CCC(S(=O)(=O)c2nncn2C)CC1`, for which the cytotoxicity at 70.5 h was -5.86%. Take `Cn1cnnc1S(=O)(=O)C1CCN(S(=O)(=O)c2ccccc2F)CC1`: the cytotoxicity at 70.5 h was -9.91%.

Take `CNC(=O)CS(=O)(=O)C1CCN(S(=O)(=O)c2cccnc2)CC1`: the cytotoxicity at 70.5 h is -3.91%. In the case of `O=C(Cc1ccc(Br)cc1)N1CC(S(=O)(=O)C2CCCCC2)C1` it was -4.51%; in that of `O=C(c1cccnc1)N1CC(S(=O)(=O)c2ccc(Cl)cc2)C1`, -10.4%. In the case of `O=C(c1ccccn1)N1CC(S(=O)(=O)c2ccc(Cl)cc2)C1` it was 1.72%. In the case of `O=C(Nc1ccc2c(c1)OCO2)Nc1cnn(C2CCOCC2)c1` it was -0.609%.

In the case of `Cc1ccc(S(=O)(=O)Nc2cnn(C3CCOCC3)c2)cc1C`, the cytotoxicity at 70.5 h came out at 2.28%.

For `CC(=O)c1ccc(S(=O)(=O)Nc2cnn(C3CCOCC3)c2)cc1`, the cytotoxicity at 70.5 h stood at 6.82%.

In the case of `COC(CNC(=O)c1cn(C)nn1)c1ccc(C)s1` (stereo unspecified), the cytotoxicity at 70.5 h was -6.13%. With `COc1nn(C)cc1C(=O)NCC(OC)c1ccccc1C` (stereo unspecified) the figure was -3.02%; with `COC(CNC(=O)c1cn(C)nn1)c1ccccc1C` (stereo unspecified), -3.6%. With `CCC(CNC(C)=O)(OC)c1ccccc1` (stereo unspecified) the figure was -6.06%; with `O=C(CC1CCCC1)N1CCN(c2ccc(-n3cncn3)nn2)CC1`, -7.71%; with `O=C(O)c1ncccc1N1CCCCC1`, -14.8%. In the case of `CCN1C(=O)C[C@@H]2[C@@H]1CCN2S(=O)(=O)c1cccc(C)c1`, the cytotoxicity at 70.5 h stood at 12.1%. In the case of `CC(C)C(=O)N1CCC(C2C(=O)Nc3ccccc32)CC1` (stereo unspecified) it was -16.1%; in that of `COCCN1C[C@H]2CCN(C(=O)Nc3ccccc3C)CC[C@H]2S1(=O)=O`, -11.5%; in that of `CCN1CCC2(CN(C(C)=O)CC23CCN(C(=O)N(C)C)CC3)C1=O` (stereo unspecified), -9.48%. In the case of `Cc1cc(C(=O)N[C@H]2CC[C@@]3(CCC(=O)N3)CC2)no1` it was -6.09%; in that of `COc1ccc(CN2C[C@@H]3CN(CCO)C[C@@H]3C2=O)cc1`, -11.6%; in that of `COC1COC2(CCN(Cc3ccco3)CC2)C1` (stereo unspecified), -8.76%. In the case of `c1cnc(N2C[C@H]3CCC[C@@H](CN4CCCC4)[C@H]3C2)nc1` it was 22.9%. Regarding `CCn1c2c(ccc1=O)CC(N)CC2` (stereo unspecified), the cytotoxicity at 70.5 h was 15.2%. In the case of `CCN1CCNC(=O)C12CCN(S(=O)(=O)c1ccc(F)cc1)CC2` it was 0.587%; in that of `CCN1CCNC(=O)C12CCN(S(=O)(=O)c1ccccc1)CC2`, -6.26%; in that of `O=C(NCC1CC1)C1CCC2(CCNCC2)C1` (stereo unspecified), -2.15%. With `CCN1CCNC(=O)C12CCN(S(=O)(=O)c1ccc(OC)cc1)CC2` the figure was -7.91%; with `O=C(NC1CC1)N1CCCC2(CCNC2=O)C1` (stereo unspecified), -3.68%. In the case of `O=C1CCC2(CCCN(C(=O)Cc3cccs3)C2)N1` (stereo unspecified), the cytotoxicity at 70.5 h was -5%. Regarding `NC1CCc2c(ccc(=O)n2Cc2ccncc2)C1` (stereo unspecified), the cytotoxicity at 70.5 h is 2.44%. In the case of `CC(C)N1CCc2[nH]nc(C(=O)N3CCCC3C)c2C1` (stereo unspecified) it was -4.03%; in that of `CCOCC(=O)N1C[C@H]2CN(CC3CC3)C(=O)[C@H]2C1`, -5.22%. With `Cn1ccc(C(=O)N2CCCCC23CC(=O)N(Cc2ccccc2)C3)n1` (stereo unspecified) the figure was 1.38%; with `Cc1nc(CN2CCC3(CCN(Cc4cnn(C)c4)C3)C2=O)cs1` (stereo unspecified), -13.8%. For the compound `O=C(C1CCC1)N1CCC2(CCNCC2)C1`, the cytotoxicity at 70.5 h was 13.3%.

As to `CC(C)COC(=O)N1CCC2(CCNC2)C1` (stereo unspecified), the cytotoxicity at 70.5 h was -10.5%. With `CCOC(=O)N1CCCC2(CCCNC2)C1` (stereo unspecified) the figure was -1.34%; with `CO[C@H]1CCN(C2CCOCC2)C[C@@H]1Cc1ccccc1`, -7.39%. Take `CO[C@@H]1CCN(C2CCOCC2)C[C@@H]1Cc1ccccc1`: the cytotoxicity at 70.5 h is -11.8%.

Turning to `CN(C)CCN1C(=O)C[C@@H]2[C@@H]1CCN2S(=O)(=O)c1ccccc1`, the cytotoxicity at 70.5 h is -12.7%. Consider `O=C1[C@@H]2CN(C3CCOCC3)C[C@H]2CCN1CC1CC1`, for which the cytotoxicity at 70.5 h was -10.2%. In the case of `CN(C)C(=O)CN1CC[C@H]2CN(S(C)(=O)=O)C[C@@H]2C1=O` it was -3.84%; in that of `CCN1CCC2(CN(C(=O)N(C)C)CC23CCNCC3)C1=O` (stereo unspecified), -8.8%; in that of `O=C(C1CCC2(CCN(CC3CCOCC3)CC2)O1)N1CCCC1` (stereo unspecified), 4.83%. With `CN(C)C(=O)N1CC2(CCN(CC3CC3)CC2)c2cc(F)ccc21` the figure was 19.9%; with `O=C1CC[C@]2(CC[C@@H](NCc3ccc4c(c3)OCO4)CC2)N1`, 19.9%; with `O=C(C1CC1)N1CC2(CCN(CC3CC3)CC2)c2cc(F)ccc21`, 25.9%. In the case of `O=C1CC[C@]2(CC[C@@H](NCc3ccoc3)CC2)N1` it was -2.86%; in that of `O=C(C1CC1)N1CC2(CCNCC2)c2cc(F)ccc21`, -11.1%; in that of `CCN(C)C1COC2(CCN(C(=O)c3cccc(Cl)c3)CC2)C1` (stereo unspecified), -6.18%.

With `O=C(C[C@H]1[C@H]2CN(Cc3ccsc3)C[C@@H]12)N1CCCC1`, the cytotoxicity at 70.5 h was -1.9%. Turning to `Cc1cccc(CN2CCc3[nH]nc(C(=O)N(C)C)c3C2)n1`, the cytotoxicity at 70.5 h is 33.4%. In the case of `O=C1CCC2(CCCN(C(=O)Cc3cccnc3)C2)N1` (stereo unspecified) it was -6.68%; in that of `Cc1ccc(CN2C(=O)CC[C@]23CC[C@@H](NC2CCOC2)CC3)cc1` (stereo partly specified), -1.41%; in that of `COc1ccc(CN[C@H]2CC[C@@]3(CCC(=O)N3)CC2)cc1`, -6.23%. With `CNC(=O)C1CCC2(CCNCC2)C1` (stereo unspecified) the figure was -3.71%; with `CO[C@@H]1CC[C@H]2[C@H]1OCCN2Cc1ccc(F)c(F)c1`, -9.19%. In the case of `O=C(N1CCCC1)N1Cc2nccn2CC(COc2cccnc2)C1` (stereo unspecified) it was -9.49%. Regarding `CO[C@@H]1CC[C@H]2[C@H]1OCCN2Cc1ccc(F)cc1`, the cytotoxicity at 70.5 h is -9.94%.

As for `CCN1CCN(C)C2(CCN(Cc3ccc(C)o3)CC2)C1=O`, the cytotoxicity at 70.5 h is -7.08%. On to `c1cc(CN2CCC3(CCOCC3COCC3CC3)CC2)ccn1` (stereo unspecified), for which the cytotoxicity at 70.5 h came out at 0.537%. Regarding `Cc1ccc(CN2CCc3[nH]nc(C(=O)N(C)C)c3C2)s1`, the cytotoxicity at 70.5 h came out at 3.17%.
